From ChEMBL document CHEMBL5131403, “Synthesis and structure-activity relationship studies of 1,5-isomers of triazole-pyrrolopyrimidine as selective Janus kinase 1 (JAK1) inhibitors” (Bioorg Med Chem Lett, 2022)

Tests used:
[1] = target: T1, Tyrosine-protein kinase JAK1 (Homo sapiens, UniProt P23458); test: Inhibition of JAK1 (unknown origin) at 1 uM by biochemical assay relative to control
[2] = target: T2, Tyrosine-protein kinase JAK2 (Homo sapiens, UniProt O60674); test: Inhibition of JAK2 (unknown origin) at 1 uM by biochemical assay relative to control
T2 sequence (O60674 whole entry): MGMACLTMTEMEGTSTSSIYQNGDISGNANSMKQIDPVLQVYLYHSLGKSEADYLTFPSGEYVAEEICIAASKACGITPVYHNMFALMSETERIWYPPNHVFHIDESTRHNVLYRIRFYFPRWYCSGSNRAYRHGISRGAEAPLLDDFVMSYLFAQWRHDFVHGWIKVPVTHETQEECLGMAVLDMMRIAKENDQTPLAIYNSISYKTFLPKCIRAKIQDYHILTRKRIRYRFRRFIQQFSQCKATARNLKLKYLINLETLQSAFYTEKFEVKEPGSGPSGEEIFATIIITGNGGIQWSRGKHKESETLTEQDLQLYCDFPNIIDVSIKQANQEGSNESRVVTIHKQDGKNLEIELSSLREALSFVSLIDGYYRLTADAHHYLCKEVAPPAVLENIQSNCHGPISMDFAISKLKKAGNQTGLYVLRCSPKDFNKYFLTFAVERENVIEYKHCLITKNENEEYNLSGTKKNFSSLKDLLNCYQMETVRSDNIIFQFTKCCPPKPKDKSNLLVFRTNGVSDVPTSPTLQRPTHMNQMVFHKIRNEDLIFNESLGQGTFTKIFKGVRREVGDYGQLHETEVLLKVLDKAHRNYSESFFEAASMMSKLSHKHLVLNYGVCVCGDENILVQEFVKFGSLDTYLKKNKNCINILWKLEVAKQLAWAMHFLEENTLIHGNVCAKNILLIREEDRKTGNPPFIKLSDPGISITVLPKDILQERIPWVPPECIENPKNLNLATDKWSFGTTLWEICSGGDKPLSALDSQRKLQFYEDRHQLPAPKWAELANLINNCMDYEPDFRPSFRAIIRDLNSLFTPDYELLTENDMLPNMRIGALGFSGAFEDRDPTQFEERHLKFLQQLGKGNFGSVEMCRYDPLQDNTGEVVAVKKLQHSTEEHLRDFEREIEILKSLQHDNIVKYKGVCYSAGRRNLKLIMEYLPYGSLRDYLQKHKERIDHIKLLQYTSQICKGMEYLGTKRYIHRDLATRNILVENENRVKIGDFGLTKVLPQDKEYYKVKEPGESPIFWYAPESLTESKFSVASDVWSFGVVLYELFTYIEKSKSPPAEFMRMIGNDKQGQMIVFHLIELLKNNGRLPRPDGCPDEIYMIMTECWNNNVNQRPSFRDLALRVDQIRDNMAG

[3] = target: T3, Tyrosine-protein kinase JAK3 (Homo sapiens) (UniProt P52333); test: Inhibition of JAK3 (unknown origin) at 1 uM by biochemical assay relative to control
T3 sequence (whole entry): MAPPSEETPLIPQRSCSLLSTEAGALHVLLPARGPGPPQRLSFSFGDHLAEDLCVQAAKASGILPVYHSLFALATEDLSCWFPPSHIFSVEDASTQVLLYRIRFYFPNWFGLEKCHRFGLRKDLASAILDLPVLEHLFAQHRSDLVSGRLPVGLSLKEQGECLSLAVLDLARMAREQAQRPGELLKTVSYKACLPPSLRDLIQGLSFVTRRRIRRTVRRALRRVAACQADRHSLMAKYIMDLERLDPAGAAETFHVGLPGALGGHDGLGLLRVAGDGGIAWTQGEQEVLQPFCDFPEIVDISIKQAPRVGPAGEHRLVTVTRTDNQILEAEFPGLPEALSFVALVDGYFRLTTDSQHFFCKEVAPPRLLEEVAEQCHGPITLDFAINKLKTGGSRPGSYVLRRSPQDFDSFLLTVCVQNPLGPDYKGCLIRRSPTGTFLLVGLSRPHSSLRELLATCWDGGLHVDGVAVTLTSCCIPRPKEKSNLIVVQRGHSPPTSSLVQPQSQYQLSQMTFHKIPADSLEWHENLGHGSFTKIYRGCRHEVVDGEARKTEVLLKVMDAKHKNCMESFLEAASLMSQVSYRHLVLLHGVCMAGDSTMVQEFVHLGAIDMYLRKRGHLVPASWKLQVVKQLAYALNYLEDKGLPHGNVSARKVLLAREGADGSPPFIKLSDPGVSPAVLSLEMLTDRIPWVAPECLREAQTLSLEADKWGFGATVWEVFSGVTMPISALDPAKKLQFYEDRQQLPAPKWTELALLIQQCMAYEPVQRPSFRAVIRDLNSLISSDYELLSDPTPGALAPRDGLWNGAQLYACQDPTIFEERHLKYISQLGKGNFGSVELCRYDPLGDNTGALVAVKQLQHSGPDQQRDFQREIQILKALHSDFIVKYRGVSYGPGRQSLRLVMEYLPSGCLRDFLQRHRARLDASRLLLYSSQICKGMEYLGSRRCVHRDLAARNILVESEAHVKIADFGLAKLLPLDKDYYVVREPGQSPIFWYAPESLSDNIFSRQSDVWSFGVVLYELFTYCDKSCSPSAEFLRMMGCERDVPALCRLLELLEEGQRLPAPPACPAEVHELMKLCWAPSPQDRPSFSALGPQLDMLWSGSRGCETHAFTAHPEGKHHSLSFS

[4] = organism: Homo sapiens; test: Selectivity index, ratio of inhibition of JAK1 (unknown origin) to inhibition of JAK2 (unknown origin)
[5] = organism: Homo sapiens; test: Selectivity index, ratio of inhibition of JAK1 (unknown origin) to inhibition of JAK3 (unknown origin)
[6] = target: T1, Tyrosine-protein kinase JAK1; test: Inhibition of JAK1 (unknown origin) by biochemical assay
[7] = target: T2, Tyrosine-protein kinase JAK2; test: Inhibition of JAK2 (unknown origin) by biochemical assay
[8] = target: Non-receptor tyrosine-protein kinase TYK2 (Homo sapiens) (UniProt P29597); test: Inhibition of TYK2 (unknown origin) at 1 uM by biochemical assay relative to control
Chain of Non-receptor tyrosine-protein kinase TYK2 (Homo sapiens) (P29597 whole entry): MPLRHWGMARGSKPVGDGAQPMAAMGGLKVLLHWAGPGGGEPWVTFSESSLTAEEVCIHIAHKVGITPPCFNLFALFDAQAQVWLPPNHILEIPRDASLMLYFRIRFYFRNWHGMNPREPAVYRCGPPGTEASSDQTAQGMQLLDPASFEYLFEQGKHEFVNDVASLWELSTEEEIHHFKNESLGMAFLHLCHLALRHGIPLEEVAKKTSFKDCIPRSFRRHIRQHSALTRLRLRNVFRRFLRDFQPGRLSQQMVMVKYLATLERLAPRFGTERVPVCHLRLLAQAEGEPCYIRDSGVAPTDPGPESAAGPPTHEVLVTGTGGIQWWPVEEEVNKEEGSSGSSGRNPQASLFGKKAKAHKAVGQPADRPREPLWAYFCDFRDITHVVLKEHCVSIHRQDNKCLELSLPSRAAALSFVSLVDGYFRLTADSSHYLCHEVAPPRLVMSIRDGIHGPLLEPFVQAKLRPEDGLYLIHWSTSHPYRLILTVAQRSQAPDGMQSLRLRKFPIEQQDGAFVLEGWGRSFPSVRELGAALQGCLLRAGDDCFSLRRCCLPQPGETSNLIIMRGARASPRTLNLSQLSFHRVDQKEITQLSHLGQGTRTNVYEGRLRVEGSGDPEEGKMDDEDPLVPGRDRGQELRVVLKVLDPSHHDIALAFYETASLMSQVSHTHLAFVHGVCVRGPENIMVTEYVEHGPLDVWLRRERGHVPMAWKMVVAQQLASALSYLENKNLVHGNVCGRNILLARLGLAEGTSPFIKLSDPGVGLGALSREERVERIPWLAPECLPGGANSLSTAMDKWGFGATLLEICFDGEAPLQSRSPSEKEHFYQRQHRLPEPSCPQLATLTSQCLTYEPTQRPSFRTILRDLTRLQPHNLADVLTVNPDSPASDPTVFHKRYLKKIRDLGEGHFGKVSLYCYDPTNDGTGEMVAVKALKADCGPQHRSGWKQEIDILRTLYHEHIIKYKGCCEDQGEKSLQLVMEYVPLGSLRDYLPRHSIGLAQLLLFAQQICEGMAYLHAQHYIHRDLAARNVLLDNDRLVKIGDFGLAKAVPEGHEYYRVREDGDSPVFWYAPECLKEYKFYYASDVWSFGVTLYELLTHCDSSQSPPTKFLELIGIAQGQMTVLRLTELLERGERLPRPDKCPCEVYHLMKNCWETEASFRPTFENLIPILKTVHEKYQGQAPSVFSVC

[9] = organism: Homo sapiens; test: Selectivity index, ratio of IC50 for inhibition of JAK2 (unknown origin) to IC50 for inhibition of JAK1 (unknown origin)

T1 sequence (P23458 whole entry): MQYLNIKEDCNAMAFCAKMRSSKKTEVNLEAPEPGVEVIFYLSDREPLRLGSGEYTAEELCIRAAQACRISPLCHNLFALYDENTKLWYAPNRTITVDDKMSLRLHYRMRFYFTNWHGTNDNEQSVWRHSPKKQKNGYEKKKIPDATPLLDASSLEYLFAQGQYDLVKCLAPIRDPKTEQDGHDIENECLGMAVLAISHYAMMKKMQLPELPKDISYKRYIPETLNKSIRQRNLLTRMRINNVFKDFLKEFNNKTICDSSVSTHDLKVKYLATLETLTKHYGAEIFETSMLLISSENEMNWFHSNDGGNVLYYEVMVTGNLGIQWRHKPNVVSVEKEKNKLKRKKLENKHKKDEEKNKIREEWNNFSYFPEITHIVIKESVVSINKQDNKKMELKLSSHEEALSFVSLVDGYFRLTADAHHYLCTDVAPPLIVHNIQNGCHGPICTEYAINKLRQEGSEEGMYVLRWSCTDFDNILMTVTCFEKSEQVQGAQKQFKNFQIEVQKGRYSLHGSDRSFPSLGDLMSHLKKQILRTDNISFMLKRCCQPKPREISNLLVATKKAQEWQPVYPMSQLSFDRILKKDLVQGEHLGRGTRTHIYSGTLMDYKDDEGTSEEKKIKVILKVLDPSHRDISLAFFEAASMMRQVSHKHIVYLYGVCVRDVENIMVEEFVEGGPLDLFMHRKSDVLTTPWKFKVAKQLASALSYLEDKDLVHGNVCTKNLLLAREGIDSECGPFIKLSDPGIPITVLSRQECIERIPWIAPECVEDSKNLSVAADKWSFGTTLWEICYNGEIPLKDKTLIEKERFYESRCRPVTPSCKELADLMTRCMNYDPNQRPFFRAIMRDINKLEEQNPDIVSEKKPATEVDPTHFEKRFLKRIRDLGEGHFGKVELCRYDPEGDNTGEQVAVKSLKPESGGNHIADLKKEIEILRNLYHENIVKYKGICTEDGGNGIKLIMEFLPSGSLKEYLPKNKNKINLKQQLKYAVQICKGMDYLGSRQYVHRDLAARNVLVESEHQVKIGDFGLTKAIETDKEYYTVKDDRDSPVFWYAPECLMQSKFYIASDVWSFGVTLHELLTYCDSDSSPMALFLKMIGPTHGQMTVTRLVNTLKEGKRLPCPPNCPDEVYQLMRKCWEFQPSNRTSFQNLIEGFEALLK

SMILES | inhibition [1] | inhibition [2] | inhibition [3] | Selectivity Index [4] | Selectivity Index [5] | IC50 [6] | IC50 [7] | inhibition [8] | Ratio IC50 [9]
Cc1c(-c2ncnc3[nH]ccc23)nnn1CCCc1ccccc1 | 48% | 10.7% | 11.3% | 5 | 12.3 | – | – | – | –
Cc1c(-c2ncnc3[nH]ccc23)nnn1CCc1ccccc1 | 12.5% | 18.7% | 13.3% | – | – | – | – | – | –
Cc1c(-c2ncnc3[nH]ccc23)nnn1Cc1ccc(C(F)(F)F)cc1 | 86.7% | 32.7% | -8.7% | – | – | – | – | – | –
Cc1c(-c2ncnc3[nH]ccc23)nnn1Cc1ccc(OC(F)(F)F)cc1 | 69.5% | 13% | -3.7% | – | – | – | – | – | –
Cc1c(-c2ncnc3[nH]ccc23)nnn1Cc1ccc(C#N)cc1 | 69.3% | 15% | 7.3% | – | – | – | – | – | –
Cc1c(-c2ncnc3[nH]ccc23)nnn1Cc1ccccc1 | 28% | 14% | -9% | – | – | – | – | – | –
Cc1c(-c2ncnc3[nH]ccc23)nnn1Cc1ccccc1OC(F)(F)F | 21.6% | 11.6% | 20.3% | – | – | – | – | – | –
Cc1c(-c2ncnc3[nH]ccc23)nnn1CCc1ccc(C(F)(F)F)cc1 | 32.7% | 8.7% | 35% | – | – | – | – | – | –
Cc1c(-c2ncnc3[nH]ccc23)nnn1CCc1ccc(OC(F)(F)F)cc1 | 17.3% | 3.7% | 20.3% | – | – | – | – | – | –
Cc1c(-c2ncnc3[nH]ccc23)nnn1Cc1ccc(S(C)(=O)=O)cc1 | 76.6% | 8% | 20.6% | – | – | 386 nM | > 10000 nM | 2.7% | –
Cc1ccc(CCn2nnc(-c3ncnc4[nH]ccc34)c2C)cc1 | 12.3% | – | 4% | – | – | – | – | – | –
Cc1c(-c2ncnc3[nH]ccc23)nnn1Cc1ccc(C(C)(C)C)cc1 | 21.6% | 15% | 3% | – | – | – | – | – | –
Cc1c(-c2ncnc3[nH]ccc23)nnn1Cc1cccc(OC(F)(F)F)c1 | 19.3% | – | 0% | – | – | – | – | – | –

Other lines, results leading:

inhibition [1] | inhibition [2] | inhibition [3] | Selectivity Index [4] | Selectivity Index [5] | IC50 [6] | IC50 [7] | inhibition [8] | Ratio IC50 [9] | SMILES
74% | 10% | 6% | 7.4 | 12.3 | – | – | – | – | Cc1ccc(Cn2nnc(-c3ncnc4[nH]ccc34)c2C)cc1
94% | 49.3% | 30% | – | – | 97 nM | 784 nM | 61.6% | 8 | Cc1c(-c2ncnc3[nH]ccc23)nnn1Cc1ccc(Br)cc1
61.7% | 49.7% | 52% | – | – | – | – | – | – | Cc1c(-c2ncnc3[nH]ccc23)nnn1CCCc1ccc(I)cc1
94% | 54% | 20.3% | – | – | 72 nM | 839 nM | 41.3% | 12 | Cc1c(-c2ncnc3[nH]ccc23)nnn1Cc1ccc(I)cc1
75% | 39% | 14% | – | – | – | – | – | – | Cc1c(-c2ncnc3[nH]ccc23)nnn1Cc1ccc(F)cc1
54.7% | 19.7% | – | – | – | – | – | – | – | Cc1c(-c2ncnc3[nH]ccc23)nnn1CCc1ccc(I)cc1
92% | 50% | 36% | – | – | 107 nM | 959 nM | 67% | 9 | Cc1c(-c2ncnc3[nH]ccc23)nnn1Cc1ccc(Cl)cc1
51% | 3% | 5% | 17 | 10.2 | – | – | – | – | COc1ccc(Cn2nnc(-c3ncnc4[nH]ccc34)c2C)cc1
